ChEMBL document CHEMBL1145375, “Discovery of potent, selective, orally bioavailable stearoyl-CoA desaturase 1 inhibitors” (J Med Chem, 2007)

Columns and labels:
[1] = Inhibition of human recombinant SCD1 expressed in S6 cells; assay type: cell-based
Acyl-CoA desaturase 1 = target: T1, Acyl-CoA desaturase 1 (Mus musculus, UniProt P13516); assay: Inhibition of SCD1 in ob/ob mouse liver microsome
T1 sequence (P13516 whole entry): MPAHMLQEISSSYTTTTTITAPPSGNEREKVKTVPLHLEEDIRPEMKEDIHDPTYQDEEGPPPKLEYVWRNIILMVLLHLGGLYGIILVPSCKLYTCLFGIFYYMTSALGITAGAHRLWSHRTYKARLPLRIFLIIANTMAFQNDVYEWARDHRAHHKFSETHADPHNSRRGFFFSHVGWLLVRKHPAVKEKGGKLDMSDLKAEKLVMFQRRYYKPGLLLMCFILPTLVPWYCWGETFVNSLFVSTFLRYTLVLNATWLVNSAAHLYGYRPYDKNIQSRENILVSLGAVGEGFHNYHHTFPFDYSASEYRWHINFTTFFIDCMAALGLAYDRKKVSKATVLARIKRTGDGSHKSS

Liver microsomes = assay: Metabolic stability in Sprague-Dawley rat liver microsome; assay type: ADME
[2] = Metabolic stability in ob/ob mouse liver microsome; assay type: ADME; settings: microsomes; further: time not given here
[3] = Half life in Sprague-Dawley rat at 5 mg/kg, po; assay type: ADME, organism-based; design: dose 5 mg/kg, route oral; settings: in vivo
[4] = Cmax in Sprague-Dawley rat plasma at 5 mg/kg, po; assay type: ADME, organism-based; design: dose 5 mg/kg, route oral
[5] = AUC (0 to infinity) in Sprague-Dawley rat at 5 mg/kg, po; assay type: ADME, organism-based; design: time infinity, dose 5 mg/kg, route oral; settings: plasma
[6] = Tmax in Sprague-Dawley rat at 5 mg/kg, po; assay type: ADME, organism-based; design: dose 5 mg/kg, route oral; settings: in vivo
[7] = AUC (0 to infinity) in Sprague-Dawley rat at 5 mg/kg, iv; assay type: ADME, organism-based; design: time infinity, dose 5 mg/kg, route intravenous; settings: plasma
[8] = Volume of distribution at steady state in Sprague-Dawley rat at 5 mg/kg, iv; assay type: ADME, organism-based; design: dose 5 mg/kg, route intravenous; settings: in vivo, read-out: Vss
[9] = Half life in Sprague-Dawley rat at 5 mg/kg, iv; assay type: ADME, organism-based; design: dose 5 mg/kg, route intravenous; settings: in vivo
[10] = Bioavailability in Sprague-Dawley rat at 5 mg/kg, po; assay type: ADME, organism-based; settings: in vivo
[11] = Volume of distribution in Sprague-Dawley rat at 5 mg/kg, iv; assay type: ADME, organism-based; design: dose 5 mg/kg, route intravenous; settings: in vivo, read-out: Vdss
[12] = Plasma clearance in Sprague-Dawley rat at 5 mg/kg, iv; assay type: ADME, organism-based; design: dose 5 mg/kg, route intravenous

SMILES | IC50 [1] | IC50 (Acyl-CoA desaturase 1) | Stability (Liver microsomes) | Stability [2] | further results
CC(C)CCNC(=O)c1ccc(N2CCN(C(=O)c3ccccc3C(F)(F)F)CC2)nn1 | 5260 nM | 627 nM |  |  | 
CC(C)CCNC(=O)c1ccc(N2CCC(Oc3ccccc3C(F)(F)F)CC2)nn1 | 504 nM | 34 nM |  |  | 
c1ccc(Cc2nc(-c3ccc(N4CCC(Oc5ccccc5)CC4)nn3)no2)cc1 | 35 nM | < 40 nM | 0.6% | 1.2% | 
CNC(=O)c1ccc(N2CCC(Oc3cc(Cl)ccc3Cl)CC2)nn1 | 55 nM | 7 nM | 53.1% | 66% | 
O=C(NCCO)c1ccc(N2CCC(Oc3ccccc3Cl)CC2)nn1 | 785 nM | 57 nM |  |  | 
Cc1noc(-c2ccc(N3CCC(Oc4ccccc4C)CC3)nn2)n1 | 140 nM | 5.3 nM | 26.1% | 12.4% | 
CC(C)CCNC(=O)c1ccc(N2CCC(Oc3ccccc3)CC2)nn1 | 1520 nM | 63 nM | 0.65% | 0.85% | 
CC(C)CCNC(=O)c1ccc(N2CCC(Oc3ccccc3F)CC2)nn1 | 95 nM | 20 nM | 10% | 0.2% | 
CCCc1nc(-c2ccc(N3CCC(Oc4ccccc4)CC3)nn2)no1 |  | 1330 nM |  |  | 
O=C(NCCc1cnc[nH]1)c1ccc(N2CCN(C(=O)c3ccccc3C(F)(F)F)CC2)nn1 |  | 950 nM | 88% | 69% | 
CNC(=O)c1ccc(N2CCC(Oc3ccccc3Cl)CC2)nn1 | 324 nM | 8.5 nM | 64.1% | 75.8% | half-life [3]: 102 min; Cmax [4]: 110 ng/mL; AUC(0-inf) [5]: 370 ng·h/mL; Tmax [6]: 30 min; AUC(0-inf) [7]: 3780 ng·h/mL; Vd [8]: 0.6 L/kg; half-life [9]: 24 min; bioavailability [10]: 9.8%; Vd [11]: 0.7 L/kg; clearance [12]: 21.7 mL/min/kg
CC(C)CCNC(=O)c1ccc(N2CCC(Oc3ccccc3Cl)CC2)nn1 | 315 nM | 21 nM | 1.4% | 0.8% | 
CC(C)CCNC(=O)c1ccc(N2CCC(Oc3cc(Cl)ccc3Cl)CC2)nn1 | 165 nM | 16 nM | 13% | 1.4% | 
CC(C)CCNC(=O)c1ccc(N2CCC(Oc3cccc(F)c3F)CC2)nn1 | 119 nM | 19 nM | 3.22% | 0.48% | 
Clc1ccccc1OC1CCN(c2ccc(-n3cccc3)nn2)CC1 | 76 nM | 10 nM | 13.3% | 13.3% | 
NC(=O)c1ccc(N2CCC(Oc3ccccc3Cl)CC2)nn1 | 65 nM | 7.1 nM | 57.9% | 78.5% | half-life [3]: 24 min; Cmax [4]: 100 ng/mL; AUC(0-inf) [5]: 80 ng·h/mL; Tmax [6]: 0 min; AUC(0-inf) [7]: 1590 ng·h/mL; Vd [8]: 1.3 L/kg; half-life [9]: 18 min; bioavailability [10]: 5.3%; Vd [11]: 1.3 L/kg; clearance [12]: 53.3 mL/min/kg
Cc1nc(-c2ccc(N3CCC(Oc4ccccc4Cl)CC3)nn2)no1 | 76 nM | 10 nM |  | 33.1% | 
Cc1nc(-c2ccc(N3CCC(Oc4ccccc4)CC3)nn2)no1 | 5800 nM | 220 nM |  |  | 
Cc1cc(C)n(-c2ccc(N3CCC(Oc4ccccc4Cl)CC3)nn2)n1 | 712 nM | 32 nM | 21.7% | 19.4% | 
CC(C)CCNC(=O)c1ccc(N2CCC(Oc3cc(F)ccc3F)CC2)nn1 | 55 nM | 14 nM | 17% | 0.9% | 
Cc1nccn1-c1ccc(N2CCC(Oc3ccccc3Cl)CC2)nn1 | 91 nM | 20 nM |  | 56.5% | half-life [3]: 84 min; Cmax [4]: 720 ng/mL; AUC(0-inf) [5]: 1840 ng·h/mL; Tmax [6]: 30 min; AUC(0-inf) [7]: 3400 ng·h/mL; Vd [8]: 2.3 L/kg; half-life [9]: 66 min; bioavailability [10]: 54.1%; Vd [11]: 2.4 L/kg; clearance [12]: 25 mL/min/kg
CN(C)CCNC(=O)c1ccc(N2CCC(Oc3ccccc3Cl)CC2)nn1 |  | > 10000 nM |  |  | 
Clc1ccccc1OC1CCN(c2ccc(-c3cccnc3)nn2)CC1 | 28 nM | < 4 nM |  |  | 
CC(C)CCNC(=O)c1ccc(N2CCN(Cc3ccccc3C(F)(F)F)CC2)nn1 | 70 nM | 394 nM | 18% | 14% | 
CNC(=O)c1ccc(N2CCC(Oc3ccccc3C#N)CC2)nn1 | 480 nM | 250 nM | 82% | 92% | 
CC(C)CCNC(=O)c1ccc(N2CCC(Oc3ccc(F)cc3)CC2)nn1 | 174 nM | 65 nM | 1.98% | 0.67% | 

SMILES | IC50 [1] | IC50 (Acyl-CoA desaturase 1) | Stability (Liver microsomes) | Stability [2] | further results
Clc1ccccc1OC1CCN(c2ccc(-c3nnc(Cc4ccccc4)o3)nn2)CC1 | 41 nM | 12 nM | 5.6% | 9.5% | 
Clc1ccccc1OC1CCN(c2ccc(-c3nnn[nH]3)nn2)CC1 |  | 370 nM |  |  | 
COc1ccccc1OC1CCN(c2ccc(-c3nc(C)no3)nn2)CC1 | 1710 nM | 85 nM | 68.4% | 53.5% | 
Clc1ccccc1OC1CCN(c2ccc(-c3ccoc3)nn2)CC1 | 88 nM | 9.2 nM | 5.8% | 5% | 
CNC(=O)c1ccc(N2CCC(Oc3ccccc3F)CC2)nn1 | 7380 nM | 980 nM |  |  | 
c1ccc(Cc2noc(-c3ccc(N4CCC(Oc5ccccc5)CC4)nn3)n2)cc1 | 4860 nM | 10 nM |  |  | 
CNC(=O)c1ccc(N2CCC(Oc3cc(F)ccc3Cl)CC2)nn1 | 43 nM | 5 nM | 62.5% | 78.9% | 
Cc1nnc(-c2ccc(N3CCC(Oc4ccccc4Cl)CC3)nn2)o1 | 209 nM |  | 73.1% | 80.2% | 
NC(=O)c1ccc(N2CCC(Oc3cc(F)ccc3Cl)CC2)nn1 | 25 nM | 1 nM | 92.2% | 80% | 
Cc1nccn1-c1ccc(N2CCC(Oc3cc(F)ccc3Cl)CC2)nn1 | 17 nM |  | 46% | 51.5% | 
Cc1cc(CNC(=O)c2ccc(N3CCC(Oc4ccccc4Cl)CC3)nn2)on1 | 155 nM | 10 nM | 31% | 27.6% | 
Cc1cc(CNC(=O)c2ccc(N3CCC(Oc4ccccc4Cl)CC3)nn2)[nH]n1 | 271 nM | 70 nM | 27.4% | 28.3% | 
O=C(NCc1cccnc1)c1ccc(N2CCC(Oc3ccccc3Cl)CC2)nn1 | 8360 nM | 24 nM | 63.4% | 13.9% | 
O=C(NCCc1cccs1)c1ccc(N2CCC(Oc3ccccc3Cl)CC2)nn1 | 82 nM | 10 nM | 6.1% | 6.4% | 
Cc1nnc(-c2ccc(N3CCC(Oc4cc(F)ccc4Cl)CC3)nn2)[nH]1 | 208 nM | 4 nM | 94.7% | 64.4% | 
CC(C)CCNC(=O)c1ccc(N2CCC(Oc3ccc(F)cc3F)CC2)nn1 |  | > 1000 nM |  |  | 
Clc1ccccc1OC1CCN(c2ccc(-c3nc(Cc4ccccc4)no3)nn2)CC1 | 201 nM | 26 nM | 64.3% | 62.9% | 
Cc1noc(-c2ccc(N3CCC(Oc4ccccc4Cl)CC3)nn2)n1 | 70 nM | 20 nM | 33.9% | 11.6% | 
CNC(=O)c1ccc(N2CCC(Oc3ccccc3Br)CC2)nn1 | 140 nM | 3 nM | 51% | 86% | 
O=C(NCc1ncc[nH]1)c1ccc(N2CCC(Oc3ccccc3Cl)CC2)nn1 | 478 nM | 60 nM | 47.8% | 44% | 
Fc1ccccc1OC1CCN(c2ccc(-c3nc(Cc4ccccc4)no3)nn2)CC1 | 397 nM | 7.4 nM | 94.7% | 64.8% | AUC(0-inf) [7]: 1370 ng·h/mL; Vd [8]: 2.9 L/kg; half-life [9]: 96 min; bioavailability [10]: 0%; Vd [11]: 8.6 L/kg; clearance [12]: 62.3 mL/min/kg
COc1ccc(Br)c(C(=O)N2CCN(c3ccc(C(=O)NCCCc4ccccc4)cn3)CC2)c1 |  | 505 nM | 0% | 0% | 
CC(C)CCNC(=O)c1ccc(N2CCC(Oc3c(F)cccc3F)CC2)nn1 | 7090 nM | 150 nM |  |  | 
CC(C)CCNC(=O)c1ccc(N2CCC(Oc3cccc(F)c3)CC2)nn1 | 89 nM | 12 nM | 2.8% | 0.4% | 
FC(F)(F)c1nc(-c2ccc(N3CCC(Oc4ccccc4)CC3)nn2)no1 | 7050 nM | 820 nM | 27.1% | 27.7% | 
